Data published in patent US10344024B2, “Compounds as ROR gamma modulators” (Glenmark Pharmaceuticals S.A., priority 2015, dated 2019).

Molecular target: T1, GST-tagged ROR gamma ligand binding domain (LBD) (Homo sapiens, UniProt P51449)
T1 construct: purchased Invitrogen
T1 sequence (P51449 269-508 limits assumed): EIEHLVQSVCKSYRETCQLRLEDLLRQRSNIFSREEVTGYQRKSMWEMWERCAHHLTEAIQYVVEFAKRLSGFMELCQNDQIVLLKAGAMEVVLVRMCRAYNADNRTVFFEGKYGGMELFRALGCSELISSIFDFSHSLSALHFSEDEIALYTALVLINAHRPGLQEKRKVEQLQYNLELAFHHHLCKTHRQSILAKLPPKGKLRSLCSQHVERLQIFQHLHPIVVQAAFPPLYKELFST
Assay: TR-FRET assay for ROR gamma (LanthaScreen co-activator peptide recruitment)
Type: biochemical
Conditions: for inhibition at 1 µM: compound concentration 1 μM; for inhibition at 1 µM / inhibition at 10 µM: TR-FRET ratio 520/495, percent of control; for inhibition at 10 µM: compound concentration 10 μM; for IC50: from dose response curve, nonlinear regression, read-out: IC50 range
Source text: The compounds described herein were screened for ROR gamma modulator activity using the TR-FRET assay (LanthaScreen™ available from Invitrogen of Carlsbad, Calif.) as described in JBC 2011, 286, 26: 22707-10; and Drug Metabolism and Disposition 2009, 37, 10: 2069-78.
Binding of the co-activator peptide, causes an increase in the TR-FRET signal while binding of an antagonist decreases the recruitment of the co-activator peptide, causing a decrease in the TR-FRET signal compared to control with no compound. The assay was performed using a two-step procedure, pre-incubation step with the compound followed by the detection step on addition of the anti-GST tagged terbium (Tb) and fluorescein tagged fluorophores as the acceptor.
Test compounds or reference compounds such as T0901317 (Calbiochem) were dissolved in dimethylsulfoxide (DMSO) to prepare 10.0 mM stock solutions and diluted to the desired concentration. The final concentration of DMSO in the reaction was 4% (v/v). The assay mixture was prepared by mixing 10 nM of the GST-tagged ROR gamma ligand binding domain (LBD) in the assay buffer containing 25 mM HEPES (pH 7.4), 100 mM NaCl, 5 mM DTT and 0.01% BSA with or without the desired concentration of the compound. The reaction was incubated at 22° C. for 1 hour. The pre-incubation step was terminated by addition of the detection mixture containing 300 nM Fluorescein-D22 co-activator peptide and 10 nM lantha screen Tb-anti GST antibody into the reaction mixture.
After shaking for 5 minutes the reaction was further incubated for 1 hour at room temperature and read at 4° C. on an Infinite F500 reader as per the kit instructions (Invitrogen). The inhibition of test compound was calculated based on the TR-FRET ratio of 520/495. The activity was calculated as a percent of control reaction. IC50 values were calculated from dose response curve by nonlinear regression analysis using GraphPad Prism software.

Compound	inhibition at 1 µM [%]	inhibition at 10 µM [%]	IC50 [nM]
CCC(F)(F)c1ccc(CC(=O)Nc2ccc(-c3nccnc3-c3cnn(C)c3)cc2)cc1 [Example 23, 2-(4-(1,1-Difluoropropyl)phenyl)-N-(4-(3-(1-methyl-1H-pyrazol-4-yl)pyrazin-2-y1)phenyl)acetamide]	36.6	68.6	–
CCc1ccccc1-c1nccnc1-c1ccc(NC(=O)Cc2ccc(C(F)(F)[C@H](C)O)cc2)cc1 [Example 52, (S)-2-(4-(1,1-difluoro-2-hydroxypropyl)phenyl)-N-(4-(3-(2-ethylphenyl)pyrazin-2-yl)phenyl)acetamide]	78.6	84	< 50
CCC(F)(F)c1ccc(CC(=O)Nc2ccc(-n3nc(C)cc3-c3ccc(Cl)cc3Cl)cc2)cc1 [Example 38, N-(4-(5-(2,4-Dichlorophenyl)-3-methyl-1H-pyrazol-1-yl)phenyl)-2-(4-(1,1-difluoropropyl)phenyl)acetamide]	70.7	74.9	100 to 500
CCC(F)(F)c1ccc(CC(=O)Nc2ccc(-c3nccnc3-c3ccncc3)cc2)cc1 [Example 17, 2-(4-(1,1-Difluoropropyl)phenyl)-N-(4-(3-(pyridin-4-yl)pyrazin-2-yl)phenyl)acetamide]	60.5	74.4	–
CCC(F)(F)c1ccc(CC(=O)Nc2ccc(-c3cnccc3-c3ccc(Cl)cc3)cc2)cc1 [Example 35, N-(4-(4-(4-Chlorophenyl)pyridin-3-yl)phenyl)-2-(4-(1,1-difluoropropyl)phenyl)acetamide]	72.8	73.3	100 to 500
CCC(F)(F)c1ccc(CC(=O)Nc2ccc(-c3nccnc3NC(CO)c3ccccc3)cc2)cc1 (centres unmarked) [Example 97, 2-(4-(1,1-Difluoropropyl)phenyl)-N-(4-(3-((2-hydroxy-1-phenylethyl)amino)pyrazin-2-yl)phenyl)acetamide]	22.5	46.2	–
CCC(F)(F)c1ccc(CC(=O)Nc2ccc(-c3nccnc3N3CCN(CCOC)CC3)cc2)cc1 [Example 41, 2-(4-(1,1-Difluoropropyl)phenyl)-N-(4-(3(4-(2-methoxyethyl)piperazin-1-yl)pyrazin-2-yl)phenyl)acetamide]	4.2	48.7	–
CC(O)C(F)(F)c1ccc(CC(=O)Nc2ccc(-c3nccnc3-c3ccccc3Cl)cc2)cc1 (centres unmarked) [Example 37, N-(4-(3-(2-Chlorophenyl)pyrazin-2-yl)phenyl)-2-(4-(1,1-difluoro-2-hydroxypropyl)phenyl)acetamide]	71.1	73.5	< 50
CCC(F)(F)c1ccc(CC(=O)Nc2ccc(-c3nccnc3-c3ccc(C(F)(F)F)cc3)cc2)cc1 [Example 12, 2-(4-(1,1-Difluoropropyl)phenyl)-N-(4-(3-(4-(trifluoromethyl)phenyl)pyrazin-2-yl)phenyl)acetamide]	85.6	83	< 50
CCC(F)(F)c1ccc(CC(=O)Nc2ccc(-c3ccncc3-c3ccc(Cl)cc3)cc2)cc1 [Example 46, N-(4-(3-(4-Chlorophenyl)pyridin-4-yl)phenyl)-2-(4-(1,1-difluoropropyl)phenyl)acetamide]	70	77.1	–
CCC(F)(F)c1ccc(CC(=O)Nc2ccc(-c3cnn(C(C)(C)C)c3-c3ccc(F)cc3)cc2)cc1 [Example 21, N-(4-(1-(tert-Butyl)-5-(4-fluorophenyl)-1H-pyrazol-4-yl)phenyl)-2-(4-(1,1-difluoropropyl)phenyl)acetamide]	37.4	38.3	–
CCC(F)(F)c1ccc(CC(=O)Nc2ccc(-c3nccnc3N3CCN(C(=O)C4CC4)CC3)cc2)cc1 [Example 96, N-(4-(3-(4-(Cyclopropanecarbonyl)piperazin-1-yl)pyrazin-2-yl)phenyl)-2-(4-(1,1-difluoropropyl)phenyl)acetamide]	47.7	77.2	–
